Experiments:
FLUAV-infected RPE cells = assay: Metabolomics of polar metabolites in media of FLUAV-infected RPE cells; conditions: infected RPE cells (FLUAV moi 1), 10 μM, 24 h
[1] = tested on: host genes in mock-infected RPE cells; assay type: cell-based, human; conditions: 10 μM, 8 h; for expression of PTGS2: mock-infected RPE cells; for expression of PDE4D, CRISPLD2 and PTGES / expression of SLC26A4, FAM111B and CCNE2: non-infected RPE cells, compared to non-treated cells
[2] = tested on: host genes in FLUAV-infected RPE cells; assay type: cell-based, human; conditions: 10 μM, 8 h; for expression of PTGS2: virus-infected RPE cells (FLUAV moi 1); for FLUAV-activated host gene expression: FLUAV-infected RPE cells (moi 1)
[3] = Cell viability assay (Cell Titer Glow) in mock-infected RPE cells, cytotoxicity; conditions: human
[4] = tested on: viral RNAs of influenza A/WSN/33(H1N1) virus; assay type: cell-based, influenza A virus in human RPE cells

SMILES | levels of many polar metabolites in the media (FLUAV-infected RPE cells) | expression of PTGS2 [1] | expression of PTGS2 [2] | CC50 at 48 h [3] [µM] | other results
CC(=O)Nc1ccc(O)cc1 [4-acetamidophenol] | elevated | – | – | – | –
C#C[C@]1(O)CC[C@H]2[C@@H]3CCc4cc(O)ccc4[C@H]3CC[C@@]21C [17a-ethynylestradiol] | elevated | – | – | – | –
CC(=O)Oc1ccccc1C(=O)O [acetylsalicylic acid, Acetylsalicylic acid] | elevated | – | – | – | –
CCOC(=O)C1=C(COCCN)NC(C)=C(C(=O)OC)C1c1ccccc1Cl (stereo not shown) [amlodipine, Amlodipine] | elevated | increased | increased | – | –
CCCCNc1cc(C(=O)O)cc(S(N)(=O)=O)c1Oc1ccccc1 [bumetanide, Bumetanide] | elevated | – | – | – | –
CCOc1nc2cccc(C(=O)O)c2n1Cc1ccc(-c2ccccc2-c2nnn[nH]2)cc1 [candesartan, Candesartan] | elevated | – | – | – | –
C#C[C@]1(O)CC[C@H]2[C@@H]3CCC4=CCCC[C@@H]4[C@H]3C(=C)C[C@@]21CC [desogestrel, Desogestrel] | – | – | – | 34.5 | –
C[C@]12CCC(=O)C=C1[C@@H]1C[C@@H]1[C@H]1[C@@H]3[C@@H]4C[C@@H]4[C@@]4(CCC(=O)O4)[C@@]3(C)CC[C@@H]12 [drospirenone, Drospirenone] | – | increased | increased | – | –
COc1ccc2nc([S@@+]([O-])Cc3ncc(C)c(OC)c3C)[nH]c2c1 [esomeprazole, Esomeprazole] | – | increased | increased | – | –
COC(=O)C1=C(C)NC(C)=C(C(=O)OC(C)(C)CN(C)CCC(c2ccccc2)c2ccccc2)C1c1cccc([N+](=O)[O-])c1 (stereo not shown) [lercanidipine, Lercanidipine] | – | increased | increased | – | –
CN(C)C(=N)N=C(N)N [metformin, Metformin] | – | – | – | – | effect on polyadenylated viral RNAs [4]: differentially affected
CC(C)(C)NCC(O)c1ccc(O)c(CO)c1 (stereo not shown) [salbutamol, Salbutamol] | – | – | – | – | expression of PDE4D, CRISPLD2 and PTGES [1]: increased; expression of SLC26A4, FAM111B and CCNE2 [1]: decreased; FLUAV-activated host gene expression [2]: did not affect
OCc1cc(C(O)CNCCCCCCOCCCCc2ccccc2)ccc1O (stereo not shown) [salmeterol, Salmeterol] | – | – | – | 29.3 | expression of PDE4D, CRISPLD2 and PTGES [1]: increased; expression of SLC26A4, FAM111B and CCNE2 [1]: decreased; FLUAV-activated host gene expression [2]: did not affect
CN[C@H]1CC[C@@H](c2ccc(Cl)c(Cl)c2)c2ccccc21 [sertraline, Sertraline] | – | increased | increased | 17.5 | –
CCC(C)(C)C(=O)O[C@H]1C[C@@H](C)C=C2C=C[C@H](C)[C@H](CC[C@@H]3C[C@@H](O)CC(=O)O3)[C@H]21 [simvastatin, Simvastatin] | – | increased | increased | 48.3 | –
C=C1CC[C@H](O)C/C1=C/C=C1\CCC[C@]2(C)[C@@H]([C@H](C)/C=C/[C@H](C)C(C)C)CC[C@@H]12 [vitamin D2, Vitamin D2] | – | – | – | 42.1 | –
C=C1CC[C@H](O)C/C1=C/C=C1\CCC[C@]2(C)[C@@H]([C@H](C)CCCC(C)C)CC[C@@H]12 [vitamin D3, Vitamin D3 (colecalciferol)] | – | – | – | 48.8 | –

Reference: publication PMC8402715 (Viruses, 2021)
